From the NIST ThermoML archive (doi:10.1021/je050498q)
± gives the expanded uncertainty stated by the source.

Assays:
[1] = refractive index (Na D-line) (dimensionless); wn = mass fraction of the nth substance listed; settings: 101 kPa, Liquid
[2] = wn = mass fraction of the nth substance listed; settings: 101 kPa, Liquid

O=C([O-])[C@H](O)[C@@H](O)C(=O)[O-].[Na+].[Na+] [disodium L-tartrate] + O
Settings	refractive index, 298.15 K	refractive index, 308.15 K	refractive index, 318.15 K	viscosity, 298.15 K [mPa·s]	viscosity, 308.15 K [mPa·s]	viscosity, 318.15 K [mPa·s]
[1], w1 = 0.0099	1.3343 ± 0.0007	1.3331 ± 0.0007	1.3318 ± 0.0007	–	–	–
[1], w1 = 0.0192	1.336 ± 0.0007	1.3346 ± 0.0007	1.3335 ± 0.0007	–	–	–
[1], w1 = 0.0282	1.3373 ± 0.0007	1.3363 ± 0.0007	1.3351 ± 0.0007	–	–	–
[1], w1 = 0.0371	1.3389 ± 0.0007	1.3378 ± 0.0007	1.3367 ± 0.0007	–	–	–
[1], w1 = 0.046	1.3405 ± 0.0007	1.3393 ± 0.0007	1.3381 ± 0.0007	–	–	–
[1], w1 = 0.0547	1.3418 ± 0.0007	1.3408 ± 0.0007	1.3396 ± 0.0007	–	–	–
[1], w1 = 0.0625	1.3432 ± 0.0007	1.3421 ± 0.0007	1.341 ± 0.0007	–	–	–
[1], w1 = 0.0714	1.3447 ± 0.0007	1.3435 ± 0.0007	1.3425 ± 0.0007	–	–	–
[1], w1 = 0.0793	1.346 ± 0.0007	1.3449 ± 0.0007	1.3439 ± 0.0007	–	–	–
[1], w1 = 0.0872	1.3475 ± 0.0007	1.3462 ± 0.0007	1.3452 ± 0.0007	–	–	–
[1], w1 = 0.0948	1.3486 ± 0.0007	1.3475 ± 0.0007	1.3464 ± 0.0007	–	–	–
[1], w1 = 0.1026	1.3502 ± 0.0007	1.3488 ± 0.0007	1.3479 ± 0.0007	–	–	–
[1], w1 = 0.1098	1.3511 ± 0.0007	1.35 ± 0.0007	1.349 ± 0.0007	–	–	–
[1], w1 = 0.1169	1.3526 ± 0.0007	1.3512 ± 0.0007	1.3502 ± 0.0007	–	–	–
[1], w1 = 0.1223	1.3535 ± 0.0007	1.3523 ± 0.0007	1.3513 ± 0.0007	–	–	–
[1], w1 = 0.1314	1.3551 ± 0.0006	1.3537 ± 0.0006	1.3526 ± 0.0006	–	–	–
[1], w1 = 0.1361	1.3557 ± 0.0006	1.3545 ± 0.0006	1.3536 ± 0.0006	–	–	–
[1], w1 = 0.1437	1.3572 ± 0.0006	1.356 ± 0.0006	1.3548 ± 0.0006	–	–	–
[1], w1 = 0.1514	1.3584 ± 0.0006	1.3572 ± 0.0006	1.3562 ± 0.0006	–	–	–
[1], w1 = 0.1577	1.3594 ± 0.0006	1.3582 ± 0.0006	1.3573 ± 0.0006	–	–	–
[1], w1 = 0.1646	1.3607 ± 0.0006	1.3596 ± 0.0006	1.3587 ± 0.0006	–	–	–
[1], w1 = 0.1697	1.3616 ± 0.0006	1.3606 ± 0.0006	1.3595 ± 0.0006	–	–	–
[1], w1 = 0.1769	1.363 ± 0.0006	1.3617 ± 0.0006	1.3607 ± 0.0006	–	–	–
[1], w1 = 0.1825	1.3639 ± 0.0006	1.3627 ± 0.0006	1.3616 ± 0.0006	–	–	–
[1], w1 = 0.1886	1.3649 ± 0.0006	1.3637 ± 0.0006	1.3627 ± 0.0006	–	–	–
[1], w1 = 0.1941	1.366 ± 0.0006	1.3646 ± 0.0006	1.3636 ± 0.0006	–	–	–
[1], w1 = 0.1996	1.3668 ± 0.0006	1.3655 ± 0.0006	1.3644 ± 0.0006	–	–	–
[1], w1 = 0.2048	1.3677 ± 0.0006	1.3664 ± 0.0006	1.3654 ± 0.0006	–	–	–
[1], w1 = 0.2116	1.3689 ± 0.0006	1.3675 ± 0.0006	1.3666 ± 0.0006	–	–	–
[1], w1 = 0.2167	1.3697 ± 0.0006	1.3685 ± 0.0006	1.3675 ± 0.0006	–	–	–
[1], w1 = 0.2221	1.3707 ± 0.0006	1.3696 ± 0.0006	1.3684 ± 0.0006	–	–	–
[1], w1 = 0.2281	1.3719 ± 0.0006	1.3707 ± 0.0006	1.3695 ± 0.0006	–	–	–
[1], w1 = 0.2328	1.3728 ± 0.0006	1.3715 ± 0.0006	1.3703 ± 0.0006	–	–	–
[1], w1 = 0.243	1.3744 ± 0.0006	1.3731 ± 0.0006	1.372 ± 0.0006	–	–	–
[1], w1 = 0.2493	1.3755 ± 0.0006	1.3744 ± 0.0006	1.3732 ± 0.0006	–	–	–
[1], w1 = 0.2577	1.377 ± 0.0006	1.3759 ± 0.0006	1.3749 ± 0.0006	–	–	–
[1], w1 = 0.2622	1.3778 ± 0.0006	1.3765 ± 0.0006	1.3757 ± 0.0006	–	–	–
[1], w1 = 0.2681	1.379 ± 0.0006	1.3777 ± 0.0006	1.3765 ± 0.0006	–	–	–
[1], w1 = 0.2757	1.3802 ± 0.0006	1.3791 ± 0.0006	1.3778 ± 0.0006	–	–	–
[1], w1 = 0.2859	1.3821 ± 0.0006	1.3809 ± 0.0006	1.3798 ± 0.0006	–	–	–
[1], w1 = 0.2979	1.384 ± 0.0006	1.3829 ± 0.0006	1.3819 ± 0.0006	–	–	–
[1], w1 = 0.3085	1.3861 ± 0.0006	1.3848 ± 0.0006	1.3841 ± 0.0006	–	–	–
[2], w1 = 0.01986	–	–	–	0.932 ± 0.024	0.773 ± 0.02	0.644 ± 0.018
[2], w1 = 0.03991	–	–	–	0.995 ± 0.025	0.824 ± 0.022	0.683 ± 0.018
[2], w1 = 0.06024	–	–	–	1.06 ± 0.027	0.885 ± 0.023	0.726 ± 0.019
[2], w1 = 0.08009	–	–	–	1.137 ± 0.028	0.952 ± 0.024	0.782 ± 0.021
[2], w1 = 0.09999	–	–	–	1.23 ± 0.03	1.02 ± 0.026	0.832 ± 0.022
[2], w1 = 0.12	–	–	–	1.321 ± 0.032	1.098 ± 0.028	0.894 ± 0.023
[2], w1 = 0.14	–	–	–	1.431 ± 0.035	1.184 ± 0.03	0.959 ± 0.025
[2], w1 = 0.16	–	–	–	1.56 ± 0.038	1.278 ± 0.032	1.024 ± 0.026
[2], w1 = 0.1795	–	–	–	1.706 ± 0.041	1.38 ± 0.034	1.101 ± 0.028
[2], w1 = 0.2007	–	–	–	1.891 ± 0.045	1.519 ± 0.037	1.215 ± 0.03
[2], w1 = 0.2196	–	–	–	2.086 ± 0.049	1.669 ± 0.04	1.334 ± 0.033
[2], w1 = 0.2402	–	–	–	2.301 ± 0.054	1.857 ± 0.045	1.475 ± 0.036
[2], w1 = 0.26	–	–	–	2.563 ± 0.06	2.055 ± 0.049	1.647 ± 0.04
[2], w1 = 0.2806	–	–	–	2.897 ± 0.067	2.305 ± 0.055	1.846 ± 0.044
